Changes are numbered by the printed parent chain.
What was measured:
[1] = molecular target: T1, AtPPO1 S305L Y426M (SEQ ID NO.124) (Arabidopsis thaliana, UniProt P55826, S305L/Y426M); experiment: fluorescent Protoporphyrinogen Oxidase assay, crude extract; format: biochemical; settings: read-out: percentage inhibition
T1 construct: made in house; host or cells: E. coli BL21 (DE3) hemG, crude extract
T1 sequence (P55826 35-537 S305L/Y426M): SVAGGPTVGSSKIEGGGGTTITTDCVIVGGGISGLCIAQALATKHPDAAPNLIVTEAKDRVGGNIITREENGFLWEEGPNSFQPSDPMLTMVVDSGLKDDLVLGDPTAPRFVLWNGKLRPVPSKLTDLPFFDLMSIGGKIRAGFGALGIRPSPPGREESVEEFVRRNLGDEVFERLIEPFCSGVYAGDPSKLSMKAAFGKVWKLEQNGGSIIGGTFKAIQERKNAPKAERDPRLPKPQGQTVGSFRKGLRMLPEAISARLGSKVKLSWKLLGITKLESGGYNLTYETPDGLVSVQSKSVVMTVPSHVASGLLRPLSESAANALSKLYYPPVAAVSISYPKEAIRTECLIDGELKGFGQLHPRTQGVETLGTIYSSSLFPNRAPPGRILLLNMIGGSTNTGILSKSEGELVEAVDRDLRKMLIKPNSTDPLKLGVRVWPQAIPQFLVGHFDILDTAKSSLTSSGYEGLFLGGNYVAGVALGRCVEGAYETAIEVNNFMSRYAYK

[2] = molecular target: T2, AtPPO1 S305L Y361C L362F Y426M L479M (SEQ ID NO.134) (Arabidopsis thaliana, UniProt P55826, L479M/S305L/Y361C/Y362F/Y426M); experiment: as above; format: biochemical; settings: read-out: percentage inhibition
T2 sequence (P55826 35-537 S305L/Y361C/Y362F/Y426M/L479M): T1 sequence (P55826 35-537 S305L/Y426M) with Y327C, Y328F, L445M

Structure (SMILES) | inhibition at 0.1 ppm [1] [%] | inhibition at 1 ppm [1] [%] | inhibition at 10 ppm [1] [%] | inhibition at 100 ppm [1] [%] | inhibition at 0.1 ppm [2] [%] | inhibition at 1 ppm [2] [%] | inhibition at 10 ppm [2] [%] | inhibition at 100 ppm [2] [%]
CC(C)N(C)S(=O)(=O)NC(=O)c1cc(-n2c(=O)cc(C(F)(F)F)n(C)c2=O)c(F)cc1Cl [Herbicide E, saflufenacil] | 38 | 78 | 100 | 96 | 0 | 39 | 80 | 99
C#CCN1C(=O)C(F)(F)Oc2cc(F)c(-n3c(=O)n(C)c(=S)n(C)c3=O)cc21 [Herbicide B, trifludimoxazin] | 100 | 100 | 100 | 100 | 100 | 100 | 100 | 100
CCOC(=O)[C@]1(C)CC(c2cc(-n3c(=O)n(C)c(=S)n(C)c3=O)c(F)cc2Cl)=NO1 [Herbicide D, ethyl (5S)-3-[2-chloro-5-(3,5-dimethyl-2,6-dioxo-4-thioxo-1,3,5-triazinan-1-yl)-4-fluoro-phenyl]-5-methyl-4H-isoxazole-5-carboxylate] | 53 | 85 | 100 | 100 | 0 | 56 | 85 | 100
CCOC(=O)C1(C)CC(c2cc(-n3c(=O)cc(C(F)(F)F)n(C)c3=O)c(F)cc2Cl)=NO1 (stereo not shown) [Herbicide C, 3-(2-chloro-4-fluoro-5-(3-methyl-2,6-dioxo-4-trifluoromethyl-3,6-dihydropyrimidin-1(2H)-yl)phenyl)-5-methyl-4,5-dihydroisoxazole-5-carboxylic acid ethyl ester] | 77 | 88 | 100 | 100 | 19 | 65 | 99 | 100
CCOC(=O)COc1ncccc1Oc1cc(-n2c(=O)cc(C(F)(F)F)n(C)c2=O)c(F)cc1Cl [Herbicide A, epyrifenacil] | 34 | 82 | 100 | 100 | 0 | 40 | 83 | 92

From patent publication US20260297542A1, “HERBICIDE RESISTANT PLANTS” (SYNGENTA CROP PROTECTION AG, priority 2023, published 2026)
